# According to patent US10487088B2, “Tricyclic compound serving as immunomodulator” (Chia Tai Tianqing Pharmaceutical Group Co., Ltd., priority 2016, dated 2019):
# Target: T1, recombinant human IDO1 enzyme (Homo sapiens, UniProt P14902)
# T1 construct: purchased NTRC NTRC-hlDO-10K
# Assay: In vitro hIDO1 enzyme activity test (NFK Green fluorescence)
# Format: biochemical
# Details: recombinant human IDO1, L-tryptophan substrate, pH 6.5
# Protocol: The change of NFK production was detected by using the NFK Green™ fluorescent molecule, which is the metabolite of the IDO1 enzyme, and the IC50 value of the compound was used as an index, to evaluate the inhibitory effect of the compound on the recombinant human IDO1 enzyme.
# IDO1 Enzyme Activity Assay Kit, NTRC # NTRC-hlDO-10K;
# The compound was diluted to 1 mM in DMSO, and then diluted 3-fold in duplicate wells, with 10 gradients. 48 μL of 50 mM phosphate buffer (pH 6.5) was transferred to the compound plate via Bravo automated liquid handling platform. 2 μL of the diluted solution of the compound in DMSO was then added and mixed, followed by transferring 10 μL therein to an enzyme reaction plate.
# The IDO1 enzyme was diluted to 20 nM in the reaction buffer (50 mM phosphate buffer pH 6.5, 0.1% Tween-20, 2% glycerol, 20 mM ascorbic acid, 20 μg/mL catalase and 20 μM methylene blue), and 20 μL of the solution was transferred to an enzyme reaction plate and incubated at 23° C. for 30 min. The reaction was started by adding 10 μL of 400 μM L-type tryptophan substrate and incubated at 23° C. for 90 min. 10 μL of NFK Green™ fluorescent dye was added, and the plate was sealed with the sealing film, incubated at 37° C. for 4 h, and then read on Envision Multimode Plate Reader (Ex 400 nm/Em 510 nm).
# The control wells with the IDO1 enzyme but no compound was set as 0% inhibition, and the control wells without the IDO1 enzyme was set as 100% inhibition, and the IC50 value of the compound was calculated by analyzing the data with XLFit 5.
# T1 sequence (P14902 whole entry): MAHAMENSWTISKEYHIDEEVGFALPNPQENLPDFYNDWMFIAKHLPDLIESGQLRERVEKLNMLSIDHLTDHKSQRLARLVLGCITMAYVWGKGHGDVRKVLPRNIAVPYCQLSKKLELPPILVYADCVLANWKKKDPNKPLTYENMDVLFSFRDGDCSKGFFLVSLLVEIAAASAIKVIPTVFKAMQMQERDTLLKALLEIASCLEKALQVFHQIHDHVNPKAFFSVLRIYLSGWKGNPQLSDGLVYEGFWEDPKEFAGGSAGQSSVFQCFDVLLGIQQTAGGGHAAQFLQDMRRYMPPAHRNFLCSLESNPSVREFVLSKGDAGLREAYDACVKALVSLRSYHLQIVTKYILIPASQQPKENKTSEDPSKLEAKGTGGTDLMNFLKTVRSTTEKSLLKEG
compound,measurement,value
"OC(CC1c2sccc2-c2cncn21)C1CCCCC1 (single isomer, unassigned) [Example 8, cyclohexyl-2-(8H-thieno[3′,2′:3,4]pyrrolo[1,2-c]imidazol-8-yl)ethanol]",IC50,0.0648 µM
"OC1CCC(C2c3sccc3-c3cncn32)CC1 (single isomer, unassigned) [Example 115, 4-(8H-thieno[3,4]pyrrolo[1,5-a]imidazol-8-yl)-cyclohexanol]",IC50,3.51 µM
"c1cc2c(s1)C(C1CCC3(CC1)CC3)n1cncc1-2 (single isomer, unassigned) [Example 45, 8-spiro[2.5]octan-6-yl-8H-thieno[3,4]pyrrolo[1,5-a]imidazole]",IC50,3.83 µM
"OC1CCCCC1C1c2sccc2-c2cncn21 (single isomer, unassigned) [Example 50, 2-(8H-thieno[3,4]pyrrolo[1,5-a]imidazol-8-yl)cyclohexanol]",IC50,> 10 µM
"c1cc2c(s1)C(C1CCCOC1)n1cncc1-2 (single isomer, unassigned) [Example 34, 8-(tetrahydro-2H-pyran-3-yl)-8H-thieno[3′,2′:3,4]pyrrolo[1,2-c]imidazole]",IC50,> 10 µM
"OC(CC1c2nn(C(F)(F)F)cc2-c2cncn21)C1CCCCC1 (single isomer, unassigned) [Example 1, 1-cyclohexyl-2-(2-(trifluoromethyl)-2,8-dihydroimidazo[1′,5′:1,5]pyrrolo[3,4-c]pyrazol-8-yl)ethanol]",IC50,> 10 µM
"OC1CCCC(C2c3sccc3-c3cncn32)C1 (single isomer, unassigned) [Example 67, 3-(8H-thieno[3′,2′:3,4]pyrrolo[1,2-c]imidazol-8-yl)cyclohexanol]",IC50,0.162 µM
"O=C(O)C1CCCC(C2c3sccc3-c3cncn32)C1 (single isomer, unassigned) [Example 103, 3-(8H-thieno[3,4]pyrrolo[1,5-a]imidazol-8-yl) cyclohexylcarboxylic acid]",IC50,> 10 µM
"c1cc2c(s1)C(C1CCC3(CC1)CC3)n1cncc1-2 (single isomer, unassigned) [Example 44, 8-spiro[2.5]octan-6-yl-8H-thieno[3,4]pyrrolo[1,5-a]imidazole]",IC50,> 10 µM
"c1cc2c(s1)C(CCN1CCCCC1)n1cncc1-2 (centres unmarked) [Example 31, 8-(2-(piperidin-1-yl)ethyl)-8H-thieno[3′,2′:3,4]pyrrolo[1,2-c]imidazole]",IC50,> 10 µM
"c1ccc2c(C3CCC(C4c5sccc5-c5cncn54)CC3)ccnc2c1 (single isomer, unassigned) [Example 93, 5-(4-(quinolin-4-yl)cyclohexyl)-8H-thieno[3′,2′:3,4]pyrrolo[1,2-c]imidazole]",IC50,> 10 µM
"FC1(F)[C@@H]2C[C@H](C3c4sccc4-c4cncn43)C[C@@H]21 (single isomer, unassigned) [Example 76, 8-(6,6-difluoro-3-bicyclo[3.1.0]cyclohexyl)-8H-thieno[3,4]pyrrolo[1,5-a]imidazole (cis)]",IC50,0.883 µM
"c1cc2c(s1)C(COC1CCCCC1)n1cncc1-2 (single isomer, unassigned) [Example 17, 8-((cyclohexyloxy)methyl)-8H-thieno[3′,2′:3,4]pyrrolo[1,2-c]imidazole]",IC50,0.338 µM
"c1cc2c(s1)C(C1CCCCC1)n1cncc1-2 (single isomer, unassigned) [Example 13, 8-cyclohexyl-8H-thieno[3,4]pyrrolo[1,5-a]imidazole]",IC50,> 10 µM
"Cc1cc2c(s1)C(C1CCCCC1)n1cncc1-2 (single isomer, unassigned) [Example 90, 8-cyclohexyl-2-dimethyl-8H-thieno[3′,2′:3,4]pyrrolo[1,2-c]imidazole]",IC50,> 10 µM
"c1ccc2c(c1)CCC(C1c3sccc3-c3cncn31)C2 (single isomer, unassigned) [Example 54, 8-tetrahydronaphthalen-2-yl-8H-thieno[3,4]pyrrolo[1,5-a]imidazole]",IC50,> 10 µM
"O[C@@H]1CCCC1[C@H]1c2sccc2-c2cncn21 (single isomer, unassigned) [Example 107, (trans)-2-(8H-thieno[3′,2′:3,4]pyrrolo[1,2-c]imidazol-8-yl)cyclopentanol]",IC50,0.183 µM
"FC1(F)CCC(CCC2c3sccc3-c3cncn32)CC1 (single isomer, unassigned) [Example 21, 8-(2-(4,4-difluorocyclohexyl)ethyl)-8H-thieno[3′,2′:3,4]pyrrolo[1,2-c]imidazole]",IC50,9.16 µM
"OC(CC1c2cscc2-c2cncn21)C1CCCCC1 (centres unmarked) [Example 12, 1-cyclohexyl-2-(5H-thieno[3′,4′:3,4]pyrrolo[1,2-c]imidazol-5-yl)ethanol]",IC50,0.106 µM
"Cc1cc2c(s1)C(C1CCCCC1)n1cncc1-2 (single isomer, unassigned) [Example 91, 8-cyclohexyl-2-dimethyl-8H-thieno[3′,2′:3,4]pyrrolo[1,2-c]imidazole]",IC50,6.75 µM
"CC1(C)CC(C2c3sccc3-c3cncn32)CCO1 (single isomer, unassigned) [Example 78, 8-(2,2-dimethyltetrahydropyran-4-yl)-8H-thieno[3,4]pyrrolo[1,5-a]imidazole]",IC50,> 10 µM
"O[C@@H]1CCCC1[C@H]1c2sccc2-c2cncn21 (single isomer, unassigned) [Example 109, (trans)-2-(8H-thieno[3′,2′:3,4]pyrrolo[1,2-c]imidazol-8-yl)cyclopentanol]",IC50,> 10 µM
"OC(CC1c2sccc2-c2cncn21)C1CCCCC1 (single isomer, unassigned) [Example 6, cyclohexyl-2-(8H-thieno[3′,2′:3,4]pyrrolo[1,2-c]imidazol-8-yl)ethanol]",IC50,9.67 µM
"OC(CC1c2nn(C(F)(F)F)cc2-c2cncn21)C1CCCCC1 (single isomer, unassigned) [Example 2, 1-cyclohexyl-2-(2-(trifluoromethyl)-2,8-dihydroimidazo[1′,5′:1,5]pyrrolo[3,4-c]pyrazol-8-yl)ethanol]",IC50,> 10 µM
"c1cc2c(s1)C(C1CCCC1)n1cncc1-2 (single isomer, unassigned) [Example 75, 8-cyclopentyl-8H-thieno[3,4]pyrrolo[1,5-a]imidazole]",IC50,> 10 µM
"c1cc2c(s1)C(C1CCCOC1)n1cncc1-2 (single isomer, unassigned) [Example 33, 8-(tetrahydro-2H-pyran-3-yl)-8H-thieno[3′,2′:3,4]pyrrolo[1,2-c]imidazole]",IC50,> 10 µM
"OC1CCCC(C2c3sccc3-c3cncn32)C1 (single isomer, unassigned) [Example 65, 3-(8H-thieno[3′,2′:3,4]pyrrolo[1,2-c]imidazol-8-yl)cyclohexanol]",IC50,5.53 µM
"c1cc2c(s1)C(C1CCOCC1)n1cncc1-2 (single isomer, unassigned) [Example 38, 8-tetrahydropyran-4-8H-thieno[3,4]pyrrolo[1,5-a]imidazole]",IC50,> 10 µM
"OC1CC(C2c3sccc3-c3cncn32)C1 (single isomer, unassigned) [Example 60, 3-(8H-thieno[3,4]pyrrolo[1,5-a]imidazol-8-yl)cyclobutanol]",IC50,> 10 µM
"OC1CCCC(C2c3sccc3-c3cncn32)C1 (single isomer, unassigned) [Example 64, 3-(8H-thieno[3′,2′:3,4]pyrrolo[1,2-c]imidazol-8-yl)cyclohexanol]",IC50,> 10 µM
"OC1CCCCC1C1c2sccc2-c2cncn21 (single isomer, unassigned) [Example 84]",IC50,0.454 µM
"CC(C)(C(O)C1CCCCC1)C1c2sccc2-c2cncn21 (single isomer, unassigned) [Example 120, 1-cyclohexyl-2-methyl-2-(8H-thieno[3,4]pyrrolo[1,5-a]imidazol-8-yl)-propan-1-ol]",IC50,> 10 µM
"O[C@@H]1CCCC1[C@H]1c2sccc2-c2cncn21 (single isomer, unassigned) [Example 110, (trans)-2-(8H-thieno[3′,2′:3,4]pyrrolo[1,2-c]imidazol-8-yl)cyclopentanol]",IC50,> 10 µM
"OC1CC(C2c3sccc3-c3cncn32)C1 (single isomer, unassigned) [Example 61, 3-(8H-thieno[3,4]pyrrolo[1,5-a]imidazol-8-yl)cyclobutanol]",IC50,1.2 µM
"c1ccc2c(C3CCC(C4c5sccc5-c5cncn54)CC3)ccnc2c1 (single isomer, unassigned) [Example 95, 5-(4-(quinolin-4-yl)cyclohexyl)-8H-thieno[3′,2′:3,4]pyrrolo[1,2-c]imidazole]",IC50,> 10 µM
"OC1CCCCC1C1c2sccc2-c2cncn21 (single isomer, unassigned) [Example 83]",IC50,1.27 µM
"c1ccc2c(C3CCC(C4c5sccc5-c5cncn54)CC3)ccnc2c1 (single isomer, unassigned) [Example 94, 5-(4-(quinolin-4-yl)cyclohexyl)-8H-thieno[3′,2′:3,4]pyrrolo[1,2-c]imidazole]",IC50,1.46 µM
"c1ccc(N2CCC(C3c4sccc4-c4cncn43)CC2)cc1 (single isomer, unassigned) [Example 86, 8-(1-phenylpiperidin-4-yl)-8H-thieno[3′,2′:3,4]pyrrolo[1,2-c]imidazole]",IC50,0.545 µM
